Results from patent US10555987B2, “GHRH agonists for the treatment of ischemic disorders” (UNIVERSITY OF MIAMI, priority 2012, dated 2020).
Non-standard residues stand in square brackets, D forms with d. Residues, ends and D or L forms follow the SMILES beside them. *: point of attachment. Desaminotyrosyl = O=C(CCc1ccc(O)cc1)*; hArg = N=C(N)NCCCC[C@H](N)C(=O)O; Agmatine = N=C(N)NCCCCN*; Nle = CCCC[C@H](N)C(=O)O; Orn = NCCC[C@H](N)C(=O)O; Abu = CC[C@H](N)C(=O)O; Aoc = NCCCCCCCC(=O)O

Biological target: T1, GHRH receptor (Homo sapiens, UniProt Q02643)
T1 sequence (Q02643 23-423): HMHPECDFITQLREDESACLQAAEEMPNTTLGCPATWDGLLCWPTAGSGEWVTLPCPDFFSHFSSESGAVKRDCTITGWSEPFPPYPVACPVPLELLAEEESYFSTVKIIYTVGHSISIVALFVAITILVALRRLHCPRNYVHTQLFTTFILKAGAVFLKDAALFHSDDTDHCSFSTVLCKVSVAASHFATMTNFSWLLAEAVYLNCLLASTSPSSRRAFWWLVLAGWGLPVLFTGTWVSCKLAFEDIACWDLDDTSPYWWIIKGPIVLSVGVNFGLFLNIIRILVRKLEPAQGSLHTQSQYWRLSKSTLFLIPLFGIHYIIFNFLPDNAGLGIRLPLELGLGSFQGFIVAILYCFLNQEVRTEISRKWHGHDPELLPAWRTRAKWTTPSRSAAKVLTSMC
Test: GHRH receptor binding, competition with 125I-labeled [His1,Nle27]hGHRH(1-32)NH2, human pituitary membrane homogenates (Table 6)
Set-up: Normal human pituitaries were purchased from the National Hormone and Peptide Program; tissue National Hormone and Peptide Program (A.F. Parlow, Harbor-UCLA Medical Center, Torrance, Calif.); host or cells: normal human pituitary, membrane fraction
Settings: for Relative affinity (Binding potency) vs GHRH: GHRH(1-29) = 1, Table 6; for Relative affinity (Binding potency) vs JI-38: JI-38 = 1, Table 6
Excerpt: Normal human pituitaries were purchased from the National Hormone and Peptide Program (A.F. Parlow, Los Angeles, County Harbor-UCLA Medical Center, Torrance, Calif.).

Row | SMILES | Relative affinity (Binding potency) vs GHRH | Relative affinity (Binding potency) vs JI-38
1 | CCCC[C@H](NC(=O)[C@@H](NC(=O)[C@H](CC(=O)O)NC(=O)[C@H](CCC(N)=O)NC(=O)[C@H](CC(C)C)NC(=O)[C@H](CC(C)C)NC(=O)[C@H](CCCN)NC(=O)[C@H](CCCNC(=N)N)NC(=O)[C@H](C)NC(=O)[C@H](CO)NC(=O)[C@H](CC(C)C)NC(=O)[C@H](CCC(N)=O)NC(=O)[C@H](CC)NC(=O)[C@H](CC(C)C)NC(=O)[C@@H](NC(=O)[C@H](CCCN)NC(=O)[C@H](CCCNC(=N)N)NC(=O)[C@H](Cc1ccc(O)cc1)NC(=O)[C@H](CO)NC(=O)[C@H](C)NC(=O)[C@@H](NC(=O)[C@H](Cc1ccccc1)NC(=O)[C@@H](NC(=O)[C@H](C)NC(=O)[C@H](CC(=O)O)NC(=O)[C@@H](C)NC(=O)CCc1ccc(O)cc1)[C@@H](C)CC)[C@@H](C)O)C(C)C)[C@@H](C)CC)C(=O)N[C@@H](CC(=O)O)C(=O)N[C@@H](CCCNC(=N)N)C(=O)N[C@@H](CCCCNC(=N)N)C(N)=O [Peptide P-23256, [Dat^1, D-Ala^2, Ala^8, Orn^12, Abu^15, Orn^21, Nle^27, Asp^28, Har^30]hGHRH(1-30)NH2] (Desaminotyrosyl-[dA]DAIFTASYR[Orn]VL[Abu]QLSAR[Orn]LLQDI[Nle]DR[hArg]-NH2) | 148.0 | 48.7
2 | CCCC[C@H](NC(=O)[C@@H](NC(=O)[C@H](CC(=O)O)NC(=O)[C@H](CCC(N)=O)NC(=O)[C@H](CC(C)C)NC(=O)[C@H](CC(C)C)NC(=O)[C@H](CCCN)NC(=O)[C@H](CCCNC(=N)N)NC(=O)[C@H](C)NC(=O)[C@H](CO)NC(=O)[C@H](CC(C)C)NC(=O)[C@H](CCC(N)=O)NC(=O)[C@H](CC)NC(=O)[C@H](CC(C)C)NC(=O)[C@@H](NC(=O)[C@H](CCCN)NC(=O)[C@H](CCCNC(=N)N)NC(=O)[C@H](Cc1ccc(O)cc1)NC(=O)[C@H](CO)NC(=O)[C@H](CCC(N)=O)NC(=O)[C@@H](NC(=O)[C@H](Cc1ccccc1)NC(=O)[C@@H](NC(=O)[C@H](C)NC(=O)[C@H](CC(=O)O)NC(=O)[C@@H](C)NC(=O)CCc1ccc(O)cc1)[C@@H](C)CC)[C@@H](C)O)C(C)C)[C@@H](C)CC)C(=O)N[C@@H](CC(=O)O)C(=O)N[C@@H](CCCNC(=N)N)C(=O)NCCCCCCCC(N)=O [Peptide P-21304, [Dat^1, D-Ala^2, Gln^8, Orn^12, Abu^15, Orn^21, Nle^27, Asp^28, Amc^30]hGHRH(1-30)NH2] (Desaminotyrosyl-[dA]DAIFTQSYR[Orn]VL[Abu]QLSAR[Orn]LLQDI[Nle]DR[Aoc]-NH2) | 74.0 | 24.4
3 | CCCC[C@H](NC(=O)[C@@H](NC(=O)[C@H](CC(=O)O)NC(=O)[C@H](CCC(N)=O)NC(=O)[C@H](CC(C)C)NC(=O)[C@H](CC(C)C)NC(=O)[C@H](CCCN)NC(=O)[C@H](CCCNC(=N)N)NC(=O)[C@H](C)NC(=O)[C@H](CO)NC(=O)[C@H](CC(C)C)NC(=O)[C@H](CCC(N)=O)NC(=O)[C@H](CC)NC(=O)[C@H](CC(C)C)NC(=O)[C@@H](NC(=O)[C@H](CCCN)NC(=O)[C@H](CCCNC(=N)N)NC(=O)[C@H](Cc1ccc(O)cc1)NC(=O)[C@H](CO)NC(=O)[C@@H](NC(=O)[C@@H](NC(=O)[C@H](Cc1ccccc1)NC(=O)[C@@H](NC(=O)[C@H](C)NC(=O)[C@H](CC(=O)O)NC(=O)[C@H](C)NC(=O)CCc1ccc(O)cc1)[C@@H](C)CC)[C@@H](C)O)[C@@H](C)O)C(C)C)[C@@H](C)CC)C(=O)N[C@@H](CC(=O)O)C(=O)NCCCCNC(=N)N [JI-36, reference compound] (Desaminotyrosyl-ADAIFTTSYR[Orn]VL[Abu]QLSAR[Orn]LLQDI[Nle]D-Agmatine; N-terminus and C-terminus assumed) | 3.25 | –
